Measured values as given in ChEMBL document CHEMBL4665869, “New thiazolopyrimidine as anticancer agents: Synthesis, biological evaluation, DNA binding, molecular modeling and ADMET study” (Bioorg Med Chem Lett, 2020).
≈ marks a conversion by molar mass, not a printed value.

What was measured:
[1] = tested on: U-251; assay: Growth inhibition of human U-251 cells at 10 uM relative to control; format: functional; settings: read-out: GI
[2] = tested on: MDA-MB-231; assay: Growth inhibition of human MDA-MB-231 cells at 10 uM relative to control; format: functional; settings: read-out: GI
[3] = tested on: HCC 2998; assay: Growth inhibition of human HCC 2998 cells at 10 uM relative to control; format: functional; settings: read-out: GI
[4] = tested on: NCI-H322M; assay: Growth inhibition of human NCI-H322M cells at 10 uM relative to control; format: functional; settings: read-out: GI
[5] = tested on: 786-0; assay: Growth inhibition of human 786-0 cells at 10 uM relative to control; format: functional; settings: read-out: GI
[6] = tested on: A549; assay: Growth inhibition of human A549 cells at 10 uM relative to control; format: functional; settings: read-out: GI
[7] = tested on: BT-549; assay: Growth inhibition of human BT-549 cells at 10 uM relative to control; format: functional; settings: read-out: GI
[8] = tested on: NCI-H23; assay: Growth inhibition of human NCI-H23 cells at 10 uM relative to control; format: functional; settings: read-out: GI
[9] = tested on: SF-295; assay: Growth inhibition of human SF-295 cells at 10 uM relative to control; format: functional; settings: read-out: GI
[10] = tested on: SF-539; assay: Growth inhibition of human SF-539 cells at 10 uM relative to control; format: functional; settings: read-out: GI
[11] = tested on: UACC-62; assay: Growth inhibition of human UACC-62 cells at 10 uM relative to control; format: functional; settings: read-out: GI
[12] = tested on: SF-268; assay: Growth inhibition of human SF-268 cells at 10 uM relative to control; format: functional; settings: read-out: GI
[13] = tested on: NCI-H226; assay: Growth inhibition of human NCI-H226 cells at 10 uM relative to control; format: functional; settings: read-out: GI
[14] = tested on: T47D; assay: Growth inhibition of human T47D cells at 10 uM relative to control; format: functional; settings: read-out: GI
[15] = tested on: PC-3; assay: Growth inhibition of human PC-3 cells at 10 uM relative to control; format: functional; settings: read-out: GI
[16] = tested on: ACHN; assay: Growth inhibition of human ACHN cells at 10 uM relative to control; format: functional; settings: read-out: GI
[17] = tested on: COLO 205; assay: Growth inhibition of human COLO 205 cells at 10 uM relative to control; format: functional; settings: read-out: GI
[18] = tested on: OVCAR-5; assay: Growth inhibition of human OVCAR-5 cells at 10 uM relative to control; format: functional; settings: read-out: GI
[19] = tested on: SK-MEL-2; assay: Growth inhibition of human SK-MEL-2 cells at 10 uM relative to control; format: functional; settings: read-out: GI
[20] = tested on: MDA-MB-468; assay: Growth inhibition of human MDA-MB-468 cells at 10 uM relative to control; format: functional; settings: read-out: GI
[21] = tested on: RPMI-8226; assay: Growth inhibition of human RPMI-8226 cells at 10 uM relative to control; format: functional; settings: read-out: GI
[22] = target: DNA; assay: Displacement of methyl green from DNA (unknown origin) assessed as DNA intercalation after 24 hrs by colorimetric assay; format: nucleic-acid assay
[23] = tested on: MCF7; assay: Growth inhibition of human MCF7 cells at 10 uM relative to control; format: functional; settings: read-out: GI
[24] = tested on: LOX IMVI; assay: Growth inhibition of human LOX IMVI cells at 10 uM relative to control; format: functional; settings: read-out: GI
[25] = tested on: HCT-116; assay: Growth inhibition of human HCT-116 cells at 10 uM relative to control; format: functional; settings: read-out: GI
[26] = tested on: SW-620; assay: Growth inhibition of human SW-620 cells at 10 uM relative to control; format: functional; settings: read-out: GI
[27] = tested on: OVCAR-8; assay: Growth inhibition of human OVCAR-8 cells at 10 uM relative to control; format: functional; settings: read-out: GI
[28] = tested on: NCI-H522; assay: Growth inhibition of human NCI-H522 cells at 10 uM relative to control; format: functional; settings: read-out: GI
[29] = tested on: MOLT-4; assay: Growth inhibition of human MOLT-4 cells at 10 uM relative to control; format: functional; settings: read-out: GI
[30] = tested on: SN12C; assay: Growth inhibition of human SN12C cells at 10 uM relative to control; format: functional; settings: read-out: GI
[31] = tested on: OVCAR-4; assay: Growth inhibition of human OVCAR-4 cells at 10 uM relative to control; format: functional; settings: read-out: GI
[32] = tested on: SK-OV-3; assay: Growth inhibition of human SK-OV-3 cells at 10 uM relative to control; format: functional; settings: read-out: GI
[33] = tested on: HT-29; assay: Growth inhibition of human HT-29 cells at 10 uM relative to control; format: functional; settings: read-out: GI
[34] = tested on: HOP-92; assay: Growth inhibition of human HOP-92 cells at 10 uM relative to control; format: functional; settings: read-out: GI
[35] = tested on: SR; assay: Growth inhibition of human SR cells at 10 uM relative to control; format: functional; settings: read-out: GI
[36] = tested on: RXF 393; assay: Growth inhibition of human RXF 393 cells at 10 uM relative to control; format: functional; settings: read-out: GI
[37] = tested on: SNB-19; assay: Growth inhibition of human SNB-19 cells at 10 uM relative to control; format: functional; settings: read-out: GI
[38] = tested on: A498; assay: Growth inhibition of human A498 cells at 10 uM relative to control; format: functional; settings: read-out: GI
[39] = tested on: NCI/ADR-RES; assay: Growth inhibition of human NCI/ADR-RES cells at 10 uM relative to control; format: functional; settings: read-out: GI
[40] = tested on: TK-10; assay: Growth inhibition of human TK-10 cells at 10 uM relative to control; format: functional; settings: read-out: GI
[41] = tested on: SNB-75; assay: Growth inhibition of human SNB-75 cells at 10 uM relative to control; format: functional; settings: read-out: GI
[42] = tested on: DU-145; assay: Growth inhibition of human DU-145 cells at 10 uM relative to control; format: functional; settings: read-out: GI
[43] = tested on: M14; assay: Growth inhibition of human M14 cells at 10 uM relative to control; format: functional; settings: read-out: GI
[44] = tested on: CAKI-1; assay: Growth inhibition of human CAKI-1 cells at 10 uM relative to control; format: functional; settings: read-out: GI
[45] = tested on: SK-MEL-5; assay: Growth inhibition of human SK-MEL-5 cells at 10 uM relative to control; format: functional; settings: read-out: GI
[46] = tested on: K562; assay: Growth inhibition of human K562 cells at 10 uM relative to control; format: functional; settings: read-out: GI
[47] = tested on: HCT-15; assay: Growth inhibition of human HCT-15 cells at 10 uM relative to control; format: functional; settings: read-out: GI
[48] = tested on: HOP-62; assay: Growth inhibition of human HOP-62 cells at 10 uM relative to control; format: functional; settings: read-out: GI
[49] = tested on: CCRF-CEM; assay: Growth inhibition of human CCRF-CEM cells at 10 uM relative to control; format: functional; settings: read-out: GI
[50] = tested on: UACC-257; assay: Growth inhibition of human UACC-257 cells at 10 uM relative to control; format: functional; settings: read-out: GI
[51] = tested on: SK-MEL-28; assay: Growth inhibition of human SK-MEL-28 cells at 10 uM relative to control; format: functional; settings: read-out: GI
[52] = tested on: HL-60(TB); assay: Growth inhibition of human HL-60(TB) cells at 10 uM relative to control; format: functional; settings: read-out: GI
[53] = tested on: Malme-3M; assay: Growth inhibition of human Malme-3M cells at 10 uM relative to control; format: functional; settings: read-out: GI
[54] = tested on: KM12; assay: Growth inhibition of human KM12 cells at 10 uM relative to control; format: functional; settings: read-out: GI
[55] = tested on: NCI-H460; assay: Growth inhibition of human NCI-H460 cells at 10 uM relative to control; format: functional; settings: read-out: GI
[56] = tested on: Hs-578T; assay: Growth inhibition of human Hs-578T cells at 10 uM relative to control; format: functional; settings: read-out: GI
[57] = tested on: IGROV-1; assay: Growth inhibition of human IGROV-1 cells at 10 uM relative to control; format: functional; settings: read-out: GI
[58] = tested on: UO-31; assay: Growth inhibition of human UO-31 cells at 10 uM relative to control; format: functional; settings: read-out: GI
[59] = tested on: MDA-MB-435; assay: Growth inhibition of human MDA-MB-435 cells at 10 uM relative to control; format: functional; settings: read-out: GI

For `CC1=CSC2=NC(/C=C/c3cccs3)=CC(c3cccs3)N12` (centres undefined), the inhibition of growth at 10 µM [1] was < 10%, the inhibition of growth at 10 µM [2] was < 10% and the inhibition of growth at 10 µM [3] was < 10%. The inhibition of growth at 10 µM [4] was < 10%, the inhibition of growth at 10 µM [5] was < 10% and the inhibition of growth at 10 µM [6] was < 10%. For the same molecule, the inhibition of growth at 10 µM [7] was < 10%, the inhibition of growth at 10 µM [8] was < 10% and the inhibition of growth at 10 µM [9] was < 10%. For the same molecule, the inhibition of growth at 10 µM [10] was < 10%, the inhibition of growth at 10 µM [11] was < 10% and the inhibition of growth at 10 µM [12] was < 10%. The inhibition of growth at 10 µM [13] was < 10%, the inhibition of growth at 10 µM [14] was < 10% and the inhibition of growth at 10 µM [15] was < 10%. The inhibition of growth at 10 µM [16] was < 10%, the inhibition of growth at 10 µM [17] was < 10% and the inhibition of growth at 10 µM [18] was < 10%. The inhibition of growth at 10 µM [19] was < 10%, the inhibition of growth at 10 µM [20] was < 10% and the inhibition of growth at 10 µM [21] was < 10%. The IC50 [22] was 39.82 µg/mL (≈ 116 µM), the inhibition of growth at 10 µM [23] was < 10% and the inhibition of growth at 10 µM [24] was < 10%. The inhibition of growth at 10 µM [25] was < 10%, the inhibition of growth at 10 µM [26] was < 10% and the inhibition of growth at 10 µM [27] was < 10%. For the same molecule, the inhibition of growth at 10 µM [28] was 13.3%, the inhibition of growth at 10 µM [29] was < 10% and the inhibition of growth at 10 µM [30] was < 10%. The inhibition of growth at 10 µM [31] was < 10%, the inhibition of growth at 10 µM [32] was < 10% and the inhibition of growth at 10 µM [33] was < 10%. The inhibition of growth at 10 µM [34] was < 10%, the inhibition of growth at 10 µM [35] was < 10% and the inhibition of growth at 10 µM [36] was < 10%. For the same molecule, the inhibition of growth at 10 µM [37] was < 10%, the inhibition of growth at 10 µM [38] was < 10% and the inhibition of growth at 10 µM [39] was < 10%. The inhibition of growth at 10 µM [40] was < 10%, the inhibition of growth at 10 µM [41] was < 10% and the inhibition of growth at 10 µM [42] was < 10%. The inhibition of growth at 10 µM [43] was < 10%, the inhibition of growth at 10 µM [44] was < 10% and the inhibition of growth at 10 µM [45] was < 10%. The inhibition of growth at 10 µM [46] was < 10%, the inhibition of growth at 10 µM [47] was < 10% and the inhibition of growth at 10 µM [48] was < 10%. For the same molecule, the inhibition of growth at 10 µM [49] was < 10%, the inhibition of growth at 10 µM [50] was < 10% and the inhibition of growth at 10 µM [51] was < 10%. For the same molecule, the inhibition of growth at 10 µM [52] was < 10%, the inhibition of growth at 10 µM [53] was < 10% and the inhibition of growth at 10 µM [54] was < 10%. For the same molecule, the inhibition of growth at 10 µM [55] was < 10%, the inhibition of growth at 10 µM [56] was < 10% and the inhibition of growth at 10 µM [57] was < 10%. The inhibition of growth at 10 µM [58] was < 10% and the inhibition of growth at 10 µM [59] was < 10%.
